Experimental data reported in US20190307783A1, “USE OF ANTIVIRALS TO INHIBIT PROTOZOAN VIRUSES” (priority 2016, published 2019).
Values joined by “and” are separate entries in the source; they are usually repeats but may differ in a detail not shown here. Equal values may be shown once.

What was measured:
Zika virus = conditions: cultured mammalian cells; read-out: EC50 against Zika virus; cited from earlier work
[1] = system: LRV1 (LgyLRV1 capsid levels); test: microbe, parasite or virus in culture
Text: Because LRV1 (like most Totiviridae) is not shed from the cell (33, 34), we developed a flow cytometric assay to measure intracellular LRV1 capsid levels on a per cell basis. To detect LRV1 we used binding to a rabbit anti-LgyLRV1 capsid antiserum (35) followed by detection with Alexa Fluor488-conjugated goat anti-rabbit IgG.
(§1) Parasites were inoculated at 2×10^5 cells/mL into Schneider's media lacking supplemental adenine.
For capsid flow cytometry, 10^7 cells were fixed at room temperature using 2% (wt/vol) paraformaldehyde (Thermo Fisher Scientific) in PBS for 2 minutes. They were then incubated in blocking buffer [10% (vol/vol) normal goat serum (Vector Laboratories, Burlingame, Calif., USA) and 0.2% TRITON X-100 in PBS] for 30 minutes at room temperature. Anti-LgyLRV1 capsid antibody (35) was added (1:20,000 dilution) and incubated at room temperature for 1 hour. After two washes with PBS, cells were resuspended in 200 μL PBS with Alexa Fluor488-labeled goat anti-rabbit IgG (Alexafluor, Invitrogen; 1:1,000; or Thermo Fisher Scientific; 1:2,000 dilution), and incubated 1 hour at room temperature. After two additional washes with PBS, cells were subjected to flow cytometry, gating for single cells using forward and side scatter and the data analyzed using […] software (BD Bioscience, San Jose, Calif., USA).

L. guyanensis (LgyLRV1+) = test: Drug-inhibition test: growth of LgyLRV1+ parasites; assay type: cell-based, Leishmania guyanensis
Protocol: These compounds were examined for their ability to inhibit the growth of LgyLRV1^+ and virus levels by LRV1 capsid flow cytometry.
Most studies were performed using luciferase-expressing transfectants of L. guyanensis (MHOM/BR/78/M4147) described previously [LRV1^+ LgyM4147/SSU:IR2SAT-LUC(b)c3 and LRV^−LgyM4147/pX63HYG/SSU:IR2SAT-LUC(b)c4] (54); these lines are termed LgyLRV1^+ and LgyLRV1^−, respectively. Two strains of LRV1^+L. braziliensis were examined: LEM2780 (MHOM/BO/90/CS) and LEM3874 (MHOM/BO/99/IMT252 no. 3) (12). Parasites were grown in Schneider's media (Sigma Aldrich, St. Louis, Mo., USA) prepared according to the supplier's instructions with pH adjusted to 6.5 and supplemented with 0.76 mM hemin, 2 μg/mL biopterin, 50 U/mL penicillin, 50 μg/mL streptomycin, and 10% (vol/vol) heat-inactivated FBS. Cell concentrations were determined using a Coulter Counter ([…], Indianapolis, Ind., USA).
as §1

[2] = animal models; cited from earlier work
[3] = HPLC test of 2CMA-TP degradation during the RDRP reaction; assay type: physicochemical; conditions: 1 hr incubation, 300 μM, n=3
Protocol: Incubation of the three LRV1 populations with 2CMA-TP reduced synthesis of both the full-length and small RDRP products (FIG. 22A, FIG. 22B, FIG. 23A, FIG. 23B, and FIG. 24). The synthesis of each product was quantitated and normalized to that obtained with drug-free controls, from which IC50s were calculated (Table 3). […] We were concerned that this arose artificially from 2CMA-TP degradation during the assay.
To study inhibition of the viral RDRP by 2CMA-TP, varying amounts of the compound were added to standard RDRP reaction mixtures. 2CMA-TP was custom synthesized by Jena Bioscience, and its identity was confirmed using electrospray ionization with a Fourier-transform mass spectrometer in negative ion mode (Thermo Scientific). The stock concentration of 2CMA-TP was calculated by UV absorption at 260 nm, assuming that its molar extinction coefficient was identical to ATP. To measure the amount of 2CMA-TP which is non-specifically hydrolyzed over the course of an RDRP reaction, mock reactions were run using LRV1− gradient fractions, cold UTP, and 300 μM 2CMA-TP. The 20-μL reactions were diluted to 80 μL with distilled water and immediately analyzed by HPLC as described below.

LRV2 = test: Virus levels in L. major strain 5-ASKH bearing LRV2; assay type: cell-based, Leishmania major; conditions: data not shown
Text: A second line of inquiry would of course be the development of anti-LRV1 agents with improved potency.

[4] = system: LRV1+ Lgy M4147 parasites; test: Intracellular 2CMA-TP accumulation and retention in parasites (HPLC); assay type: in vitro ADME, Leishmania guyanensis; conditions: for Intracellular 2CMA-TP concentration: 18 hours, n=4
Text: To account for the relative sensitivity of Lgy LRV1 to 2CMA compared to the insensitivity of LRV1 RDRP activity to inhibition by 2CMA-TP, we hypothesized that parasites take up and activate 2CMA, accumulating high 2CMA-TP concentrations. We first identified an HPLC protocol capable of resolving both synthetic 2CMA-TP and a smaller peak we presume to be 2CMA-DP from natural ribonucleotides and the internal standard, dGTP (FIG. 23A and FIG. 23B). Standard mixtures of known concentration were used to generate a standard curve relating peak area to 2CMA-TP amounts (FIG. 30). We then tested several protocols for extracting parasite nucleotides and determined that extraction with 1:1 acetonitrile:water performed best. Using this protocol, we compared the nucleotide profiles of LRV1+ Lgy grown in the presence or absence of 10 μM extracellular 2CMA for 18 hours, a time chosen because it corresponds to about two rounds of parasite replication. Under these conditions, we observed a peak co-eluting with synthetic 2CMA-TP that was absent from untreated parasites (FIG. 25B), establishing the parasite's capacity to phosphorylate 2CMA.
We then measured steady-state levels of intracellular 2CMA-TP following incubation of late-log-phase parasites with 2CMA for 18 hours. To determine the intracellular concentration of 2CMA-TP under these conditions, we measured the average volume of the parasites (roughly 23 fL). […] Over this range of concentrations, internal 2CMA-TP levels exceeded external 2CMA concentrations by 40- to 80-fold (FIG. 26A and FIG. 26B), attesting to the potency of the parasite's purine salvage pathway.
Cultures of WT or GFP-expressing LRV1+ Lgy M4147 were seeded at 2×10^5 cells/mL and analyzed when they reached early, mid, or late log phase. From each sample, one aliquot was analyzed by light scattering on a flow-cytometer, while another was immobilized by treatment with 20 mM sodium azide and imaged by spinning-disk confocal microscopy {Ellenberger, 1987}. Cell volumes were calculated using a custom ImageJ script {Schindelin, 2012}. A standard curve relating forward scattering intensity to measured volume was developed and used to estimate metabolite concentrations (FIG. 29).
For drug metabolism studies, 10^8 late-log phase parasites in 5 mL of Schneider's medium were treated with indicated drug concentrations for 20 hours. For accumulation assays, 10^8 cells were harvested immediately. In ‘washout’ experiments, one 5 mL culture was grown for each replicate of each time point. These cultures were spun down, resuspended in drug-free medium, centrifuged again, and finally suspended in 5 mL drug-free Schneider's medium. After 2, 4, or 8 hours, nucleotides were extracted from 10^8 parasites from individual washed cultures and analyzed by HPLC.
For each sample, cells were collected by centrifugation at 2200×g, 4° C. for 5 minutes, re-suspended in 1 mL ice-cold PBS and re-centrifuged. The cell pellet was gently re-suspended in 100 μL ice-cold 0.5×PBS plus 7 nmol dGTP as a recovery and elution standard. […] Cells were immediately lysed by rapidly re-suspending in 900 μL ice-cold 5:4 acetonitrile:water mixture {Au, 1989} and vortexing continuously for 5 min at 4° C. Insoluble debris was pelleted at 16,000×g for 5 minutes and the clarified extract was transferred to a fresh tube. The solvent was removed by evaporation in a SAVANT SpeedVac concentrator (Thermo Scientific) with the heater off and the vacuum pump refrigeration on. Samples were re-suspended with 80 μL distilled water, flash frozen, and stored at −80° C. prior to HPLC analysis.
Nucleoside di- and tri-phosphates were separated by isocratic HPLC as described {Moal, 1989}. […]

SMILES	EC50 (Zika virus) [µM]	activity at 100 µM ([1]; 48 h, read-out: Percent control (LRV1 capsid)) [%]	Selectivity for LRV1 versus L. guyanensis growth inhibition ([1]; EC50 growth vs EC50 LRV1 capsid) [fold]	LRV1 capsid (geometric mean FU) ([1]; LgyLRV1+, tested at 100 μM, 2 days) [FU]	EC50 ([1]; read-out: EC50 for LRV1 capsid inhibition) [µM]	Reduction in LRV1 capsid levels ([1]; tested at 100 μM) [fold]	activity at 100 µM (L. guyanensis (LgyLRV1+); Leishmania guyanensis, 48 h, LgyLRV1+, tested at 100 μM, growth after 2 days, read-out: Percent control (density)) [%]	EC50 (L. guyanensis (LgyLRV1+); Leishmania guyanensis, L. guyanensis, relative cellular growth rate, titration, read-out: EC50 for parasite growth) [µM]	inhibition at 100 µM (L. guyanensis (LgyLRV1+); Leishmania guyanensis, tested at 100 μM, read-out: Inhibition of parasite density) [%]	Density (cells/mL) (L. guyanensis (LgyLRV1+); LgyLRV1+, tested at 100 μM, growth after 2 days)	Serum half-life [2] [h]	2CMA-TP degraded (to apparent 2CMA-DP) during the assay [3] [%]	Inhibition of LRV2 virus levels, in words (LRV2)	Intracellular 2CMA-TP concentration ([4]; 1 μM external 2CMA)	Intracellular 2CMA-TP concentration ([4]; 3 μM external 2CMA) [µM]	Intracellular 2CMA-TP concentration ([4]; 10 μM external 2CMA)	Accumulated 2CMA-TP retained ([4]; 4 hours in drug-free medium after 18 hours in 10 μM 2CMA)	Intrinsic 8 hour 2CMA-TP concentration ([4]; 8 hours in drug-free medium, corrected for population growth) [µM]	Average 2CMA-TP concentration after washout ([4]; 8 hours in drug-free medium, not corrected for parasite replication) [µM]
C[C@@]1(O)[C@H](O)[C@@H](CO)O[C@H]1n1ccc2c(N)ncnc21 [2′C-methyl-7-deaza-adenosine, 7-deaza-2′-C-methyladenosine]	10	10	> 20	27	~5	12	20	> 100	90	3.38E+6	1.6	–	–	–	–	–	–	–	–
C[C@@]1(O)[C@H](O)[C@@H](COP(=O)(O)OP(=O)(O)OP(=O)(O)O)O[C@H]1n1cnc2c(N)ncnc21 [Compound 2CMA-TP, 2′-C-methyladenosine triphosphate]	–	–	–	–	–	–	–	–	–	–	–	3.7±0.6	no inhibition of virus levels	78 ± 9.0 µM and 80 µM	152 ± 43	410 ± 110 µM and 410 µM	approximately 50%	230 ± 130	170 ± 100
